From US7033829B2, “Method to inhibit cell growth using oligonucleotides” (Trustees of Boston University, priority 2000, dated 2006)
Oligonucleotides are written 5' to 3', each unit as a sugar letter and its base; * is a phosphorothioate linkage, no mark a phosphodiester; rarer units and linkages stand in square brackets, end groups in braces. Plain capitals give the bases only. d = 2'-deoxy (DNA); {P} = phosphate

Experiments:
Format in all cases: cell-based, human
[1] = test system: E2F1, p73, Mart-1, tyrosinase, TRP-1 and gp-100; assay: Western blot of MM-AN melanoma cells
Procedure: Proteins were analyzed by denaturing polyacrylamide gel electrophoresis (SDS-PAGE), using 10% polyacrylamide, and western blot analysis was done with an E2F1-specific monoclonal antibody (KH95 Santa Cruz Biotechnology, Santa Cruz, Calif.), and p73 analyzed using a polyclonal antibody (AB-4 from Oncogene Research Products, San Diego, Calif.). […] In order to determine the contribution of p73 to cell death, MM-AN melanoma cells were stably transfected with a dominant negative p73 (p73DN) (Irwin et al., Nature 402:645–648) construct or empty vector as a control (p73^DN-containing vector a gift from Dr. William Kaelin, Dana Farber Institute, Boston) and paired cultures were supplemented with 40 μM 11mer-1 or diluent alone, then harvested at 72 hours for FACS analysis. […] The above-mentioned differentiation markers are expressed in normal human melanocytes. It appears that the loss of expression of these antigens is a mechanism that a subset of human melanomas uses to escape immunosurveillance defenses. Several peptides from these antigens are targets of tumor infiltrating cytotoxic lymphocytes. Encouraging results have been obtained in vivo with different vaccination strategies using antigenic peptides from the above antigens.

p95/Nbs1 = assay: Modification / phosphorylation of p95/Nbs1 (western blot)
Procedure: Cells were plated at a density of 180,000 cells/ml in RPMI 1640 medium supplemented with 3% FBS. Cells were treated with 40 μM of either of the oligonucleotides for 72 hours. Cells were then collected, washed and fixed for 30 minutes in 4% paraformaldehyde and then permeabilized with 0.1% Triton X-100 for 2 minutes. The TUNEL assay was carried out with components and instructions of the In Situ Cell Death Detection Kit using fluorescein-labeled dUTP from Boehringer Mannheim. TUNEL-positive cells were detected by FACS analysis and confocal microscopy. Cellular Uptake of Oligonucleotides For confocal analysis, Jurkat cells were plated on Permanox chamber slides (Lab-Tek, Naperville, Ill.) and treated for 4 hours with fluorescein phosphoramidite (FAM)-labeled oligonucleotides (Research Genetics, Inc., Huntsville, Ala.). […] Uptake of the oligonucleotides was assessed in 5–10 μm sections with a Carl Zeiss LSM 510 confocal laser microscope. […] Fluorescence was measured on the FL-1 channel. […] Antibody Ab-6 (DO-1 clone, Oncogene Research Products, Cambridge, Mass.) detected p53; antibody KH95 (Santa Cruz Biotechnology, Inc., Santa Cruz, Calif.) detected E2F1; antibody Ab-4 (Oncogene Research products) detected p73. Phospho-p53 (serine 15) was detected using the #9284 polyclonal antibody and phospho-p95/Nbs1 (serine 343) was detected by a phospho-p95/Nbs1-specific polyclonal antibody, both antibodies from Cell Signaling Technology (Beverly, Mass.). p95/Nbs1 antibody (#NB-100-143, Novus Biologicals, Littleton, Colo.) and an actin antibody (I-19, Santa Cruz Biotechnology, Santa Cruz, Calif.) were also used. […] After the indicated times, total protein was collected and analyzed by 8% PAGE and western blot using a polyclonal antibody to p95/Nbs1 (#NB-100-143, Novus Biologicals, Littleton, Colo.). […] Telomere length was determined essentially as described by van Steensel and de Lange (van Steensel, B. and T. de Lange. 1997, Nature 385: 740–743) using the Telo TAGGG Telomere Length Assay from Roche Molecular Biochemicals (Indianapolis, Ind.) and the protocol supplied by the manufacturer. […]

Jurkat cells = assay: TUNEL assay in Jurkat cells; conditions: 40 μM; 72 hours
Procedure: Cells were plated at a density of 180,000 cells/ml in RPMI 1640 medium supplemented with 3% FBS. Cells were treated with 40 μM of either of the oligonucleotides for 72 hours. Cells were then collected, washed and fixed for 30 minutes in 4% paraformaldehyde and then permeabilized with 0.1% Triton X-100 for 2 minutes. The TUNEL assay was carried out with components and instructions of the In Situ Cell Death Detection Kit using fluorescein-labeled dUTP from Boehringer Mannheim. TUNEL-positive cells were detected by FACS analysis and confocal microscopy. […] Uptake of the oligonucleotides was assessed in 5–10 μm sections with a Carl Zeiss LSM 510 confocal laser microscope. […] Fluorescence was measured on the FL-1 channel. […] Antibody Ab-6 (DO-1 clone, Oncogene Research Products, Cambridge, Mass.) detected p53; antibody KH95 (Santa Cruz Biotechnology, Inc., Santa Cruz, Calif.) detected E2F1; antibody Ab-4 (Oncogene Research products) detected p73. Phospho-p53 (serine 15) was detected using the #9284 polyclonal antibody and phospho-p95/Nbs1 (serine 343) was detected by a phospho-p95/Nbs1-specific polyclonal antibody, both antibodies from Cell Signaling Technology (Beverly, Mass.). p95/Nbs1 antibody (#NB-100-143, Novus Biologicals, Littleton, Colo.) and an actin antibody (I-19, Santa Cruz Biotechnology, Santa Cruz, Calif.) were also used. […]

telomere 3′ overhang = assay: 3′ overhang assay in fibroblasts; conditions: 40 μM; up to 7 days
IL-10 = IL-10 mRNA (RT-PCR) and protein (ELISA) in keratinocytes
Procedure: The immunomodulatory effect of pTpT was tested in vitro using human keratinocytes. Duplicate cultures of primary human keratinocytes were treated with pTpT, diluent or UVB irradiation (200 J/m^2) or sham irradiation. Cells were collected at various times after treatment and analyzed for IL-10 protein by ELISA and for IL-10 mRNA by RT-PCR. An increase in IL-10 mRNA was detected after 6 hours in irradiated cells and after 48 hours in pTpT treated cells. An increase in IL-10 protein of 18 pg/ml was detected 24 hours after irradiation and 15±2 pg/ml 72 hours after treatment with pTpT. […] In the allogenic MLR, T cell activation is measured as lymphocyte proliferation, measured by ^3H-thymidine incorporation. IL-10 activity of culture medium from the 72 hour pTpT sample was measured by addition of the >10 kD components (containing the 18 kD IL-10 protein). […] Thus, like UVB irradiation, pTpT induces IL-10 in human keratinocytes which is likely to cooperate with TNFα to inhibit contact hypersensitivity in pTpT treated skin.

pGTTAGGGTTAG (DNA {P}-dGdTdTdAdGdGdGdTdTdAdG) [SEQ ID NO: 5]
induction of E2F1 and p73 ([1]; 40 μM): the same pattern of induction for E2F1 and p73 as observed for Jurkat cells | differentiation markers Mart-1, tyrosinase, TRP-1 and gp-100 ([1]; 48–72 hours after treatment): upregulated | shift in p95/Nbs1 migration (p95/Nbs1; Jurkat cells, 48, 72 and 96 hours): detects such a shift in p95/Nbs1 migration | shift in p95/Nbs1 migration (p95/Nbs1; SCC12F cells): respond identically | phosphorylation of p95/Nbs1 (phospho-specific antibody) (p95/Nbs1; fibroblasts): phosphorylation of p95/Nbs1 is induced | TUNEL fluorescence (FACS, confocal microscopy) (Jurkat cells): an increase in fluorescence due to end-label incorporation | degradation of the telomere 3′ overhang (telomere 3′ overhang): did not result in degradation of the telomere 3′ overhang

thymidine dinucleotide [pTpT]
increase in IL-10 protein (IL-10; 72 hours after treatment): 15 ± 2 pg/mL | time after which an increase in IL-10 mRNA was detected (IL-10; primary human keratinocytes): 48 h
